What was measured:
human ASIC3 = molecular target: T1, human ASIC3 (Homo sapiens, UniProt Q9UHC3); experiment: In vitro assay for ASIC activity, whole-cell patch clamp, hASIC3 cell line; assay type: cell-based; conditions: for block of inward current evoked by pH5.5 in the hASIC3 cell line: pre-application of 10 μM; for inhibition of human ASIC3 current with increasing concentrations (FIG. 1): increasing concentrations of compound; for inhibition of inward current evoked by pH5.5 in the hASIC3 cell line: pre-application of 300 nM; for inhibition at 10 µM: percent inhibition vs. baseline current, read-out: levels of inhibition of acid-evoked ASIC current
T1 construct: expressed in transfected cells; host or cells: HEK293
T1 sequence (Q9UHC3 1-531): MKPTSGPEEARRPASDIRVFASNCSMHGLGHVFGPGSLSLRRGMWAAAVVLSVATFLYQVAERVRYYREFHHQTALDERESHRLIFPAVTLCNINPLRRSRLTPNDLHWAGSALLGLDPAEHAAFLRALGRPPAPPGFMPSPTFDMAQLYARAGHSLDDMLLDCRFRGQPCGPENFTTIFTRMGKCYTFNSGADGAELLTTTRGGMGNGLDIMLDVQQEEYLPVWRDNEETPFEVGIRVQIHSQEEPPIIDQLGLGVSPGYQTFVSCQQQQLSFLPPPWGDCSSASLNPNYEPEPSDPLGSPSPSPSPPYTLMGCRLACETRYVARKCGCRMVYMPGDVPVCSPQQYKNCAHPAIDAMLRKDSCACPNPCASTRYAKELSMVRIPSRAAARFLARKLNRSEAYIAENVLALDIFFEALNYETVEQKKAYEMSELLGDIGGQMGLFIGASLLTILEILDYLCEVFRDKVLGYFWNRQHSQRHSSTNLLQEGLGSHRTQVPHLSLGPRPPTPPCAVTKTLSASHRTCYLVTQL
Description: (§1) Cell Preparation: Human embryonic kidney cells (HEK293) stably expressing the human ASIC ion channel, are grown to 70-90% confluence in T75 cell culture flasks. Cells are lifted by removing the growth media and incubating with 3 ml of warmed (37° C.) 50/50 Trypsin/Dulbecco's Solution (GIBCO, USA) for 4-6 minutes. 7 ml of pH7.4_HBS (see Solutions and Drugs) is then added to block Trypsin activity. The cell suspension is placed into a 10 ml centrifuge tube and centrifuged for 1 minute @ 150×G. After centrifugation, the supernatant is aspirated and the cell pellet is re-suspended in 2-5 ml of pH7.4_HBS for a final cell density of ˜0.6×10^6 cells/ml. For whole-cell patch clamp, approximately 1000 cells are placed in a recording chamber containing standard bath solution for electrophysiological recording.
Solutions and Drugs: The intracellular solution contains (mM): 119 K-gluconate, 15 KCl, 3.2 MgCl2, 5 EGTA, 5 HEPES, 5 K2ATP, pH 7.3. The standard bath solution (pH7.4_HBS) contains (mM): 150 NaCl, 5 KCl, 2 CaCl2, 1 MgCl2, 10 HEPES, 12 Dextrose, pH 7.4. The acid-activation bath solution (pH5.5_MBS) contains (mM): 150 NaCl, 5 KCl, 2 CaCl2, 1 MgCl2, 10 MES, 12 Dextrose, pH 5.5. Test compounds were prepared as 2 or 10 mM stock solutions in DMSO and diluted in either pH7.4_HBS or pH5.5_MBS to final concentration.
Electrophysiological recording: Patch clamp recording pipettes were pulled from borosilicate glass and typically had 2-4 MOhm resistances. Whole cell currents were recorded with a patch clamp amplifier (Multiclamp 700B, Axon Instruments Inc). Holding and test potential was −60 mV. Control and compound solutions perfused the vicinity of the cell with flow controlled by computer-operated solenoid valves. 10-90% solution exchange typically took <20 ms. After establishment of whole cell configuration, cells were perfused with pH7.4_HBS. Baseline ASIC current was determined by application of pH5.5_MBS at two minute intervals. After a stable ASIC current was determined, inhibition of acid evoked current was determined by multiple applications of increasing concentrations (3-fold dilution) of compound. Inhibition of current was expressed as percent inhibition vs. baseline current. A minimum of three independent determinations at each concentration of compound was used for each data point. IC50s were determined using the Hill Equation.

ASIC = conditions: cited from earlier work; for inhibition of ASIC current: Psalmotoxin-1 selective for ASIC1, APETx2 selective for ASIC3
human ASIC1 = molecular target: T2, human ASIC1 (Homo sapiens, UniProt P78348); experiment: In vitro assay for ASIC activity, whole-cell patch clamp, hASIC1 cell line; assay type: cell-based
T2 construct: expressed in transfected cells; host or cells: HEK293
T2 sequence (P78348 1-528): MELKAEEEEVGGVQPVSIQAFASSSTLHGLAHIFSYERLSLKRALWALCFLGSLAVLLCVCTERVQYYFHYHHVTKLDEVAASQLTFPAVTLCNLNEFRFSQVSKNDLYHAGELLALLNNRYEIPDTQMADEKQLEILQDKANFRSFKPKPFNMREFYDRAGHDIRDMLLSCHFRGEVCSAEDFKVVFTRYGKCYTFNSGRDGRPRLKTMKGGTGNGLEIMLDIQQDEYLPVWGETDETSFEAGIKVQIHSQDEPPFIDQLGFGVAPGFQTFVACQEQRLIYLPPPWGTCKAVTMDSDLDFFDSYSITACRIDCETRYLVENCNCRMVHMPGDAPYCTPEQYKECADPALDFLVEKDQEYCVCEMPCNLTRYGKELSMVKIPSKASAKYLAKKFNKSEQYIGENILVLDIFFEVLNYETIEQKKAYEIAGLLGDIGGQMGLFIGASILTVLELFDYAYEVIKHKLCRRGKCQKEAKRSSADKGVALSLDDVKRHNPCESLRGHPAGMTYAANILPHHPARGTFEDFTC
Description: as §1, with “recording. […]” for “recording.”
Electrophysiological recording: Patch clamp recording pipettes were pulled from borosilicate glass and typically had 2-4 MOhm resistances. Whole cell currents were recorded with a patch clamp amplifier (Multiclamp 700B, Axon Instruments Inc). […] After a stable ASIC current was determined, inhibition of acid evoked current was determined by multiple applications of increasing concentrations (3-fold dilution) of compound. Inhibition of current was expressed as percent inhibition vs. baseline current. […] IC50s were determined using the Hill Equation.

In the case of `N=C(N)c1ccc2[nH]c(-c3cccc(CO)c3)cc2c1` [EXAMPLE 2], the “block of inward current evoked by pH5.5 in the hASIC3 cell line” value (human ASIC3) was “did not block the proton-evoked current”.

For “Psalmotoxin-1 (EDCIPKWKGCVNRHGDCCEGLECWKRRRSFEVCVPKTPKT; Pi-theraphotoxin-Pc1a; UniProt P60514 1-40, looked up)”, the “inhibition of ASIC current” value (ASIC) is listed as “inhibit ASIC current at nM concentrations”.

For `CC(C)C1c2cc(C3CC3c3ccc4cc(C(=N)N)ccc4c3)ccc2CCN1C` (stereo not shown) [A-317567], the “increase in potency vs. amiloride” value (ASIC; in vivo and in vitro assays) is given as over 10 fold.

For `N=C(N)c1ccc2[nH]c(-c3cc(Br)cc(Br)c3)cc2c1` [EXAMPLE 4], the “inhibition of human ASIC3 current with increasing concentrations (FIG. 1)” value (human ASIC3) was “dose dependent inhibition” and the “inhibition of inward current evoked by pH5.5 in the hASIC3 cell line” value (human ASIC3) was “inhibited the proton-evoked current”.

`N=C(Nc1ccccc1)c1ccc2[nH]c(-c3cc(Cl)cc(Cl)c3)cc2c1` [compound 21, 2-(3,5-dichlorophenyl)-N-phenyl-1H-indole-5-carboximidamide] showed an inhibition at 10 µM (human ASIC3) of over 20%.

`NCc1ccc2[nH]c(-c3ccccc3)c(CN)c2c1` [compound 28, (2-Phenyl-1H-indole-3,5-diyl)dimethanamine] gave an inhibition at 10 µM (human ASIC3) of over 20%.

For APETx2, the “inhibition of ASIC current” value (ASIC) is given as “inhibit ASIC current at nM concentrations”.

With `N=C(N)c1ccc2[nH]c(-c3cc(Cl)cc(Cl)c3)cc2c1` [EXAMPLE 1, 2-(3,5-Dichlorophenyl)-1H-indole-5-carboximidamide] the “inhibition of proton-evoked current in HEK cells expressing human ASIC3 (FIG. 2)” value (human ASIC3; HEK cells, human ASIC3) was “inhibits proton-evoked current”, the inhibition at 10 µM (human ASIC3) was over 20% and the “inhibition of human ASIC3 current with increasing concentrations (FIG. 1)” value (human ASIC3) was “dose dependent inhibition”. For the same compound, the “inhibition of inward current evoked by pH5.5 in the hASIC3 cell line” value (human ASIC3) was “inhibits the majority of the proton-evoked current”, the “inhibition of proton-evoked current in HEK cells expressing human ASIC1 (FIG. 2)” value (human ASIC1; HEK cells, human ASIC1) was “inhibits proton-evoked current” and the “inhibition of inward current evoked by pH6.5 in the hASIC1 cell line” value (human ASIC1; pre-application of 300 nM, pH6.5) was “inhibits a large fraction of this current”.

`NCc1ccc2[nH]c(-c3cc(Cl)nc(Cl)c3)cc2c1` [compound 50, 1-[2-(2,6-Dichloropyridin-4-yl)-1H-indol-5-yl]methanamine] showed an inhibition at 10 µM (human ASIC3) of over 20%.

With `N=C(N)c1ccc2[nH]c(-c3cc(Cl)cc(Br)c3)cc2c1` [EXAMPLE 3] the “block of inward current evoked by pH5.5 in the hASIC3 cell line” value (human ASIC3) was “blocked the proton-evoked current”.
